Reference: patent publication US6465429B1, “Antimicrobial cationic peptides” (priority 1995, dated 2002)

Key:
A. calcoaceticus = test: Synergy of peptide and antibiotic, MIC and FIC (checkerboard); format: cell-based; conditions: Acinetobacter calcoaceticus, agent alone
Experimental: (§1) FICs are performed by checkerboard titrations of peptides in one dimension of a microtiter plate, and of antibiotics in the other dimension, for example. The FIC is calculated by looking at the impact of one antibiotic on the MIC of the other and vice versa. […] Preferably, an FIC of less than 0.5 is obtained for synergism. As used herein, FIC can be determined as follows: [formula]
(§2) Synergism is identified as an FIC of about ≦0.5.

X. maltophila = test: as above; format: cell-based; conditions: agent alone
Experimental: as §1, §2

E. cloacae = test: as above; format: cell-based; conditions: Enterobacter cloacae, agent alone
Experimental: as §1, §2

P. aeruginosa = test: microbe, parasite or virus in culture; conditions: Pseudomonas aeruginosa, agent alone
Experimental: as §1, §2

[1] = A. calcoaceticus isolate 1, strain ATCC 23055
[2] = A. calcoaceticus isolate 4, strain 28
[3] = A. calcoaceticus isolate 5, strain 8220
[4] = A. calcoaceticus isolate 6, strain 8221
[5] = A. calcoaceticus isolate 7, strain 8222
[6] = A. calcoaceticus isolate 8, strain 8223
[7] = A. calcoaceticus isolate 9, strain 8224
[8] = A. calcoaceticus isolate 2, strain 23
[9] = X. maltophila isolate 35, strain 6
[10] = X. maltophila isolate 36, strain 16
[11] = X. maltophila isolate 37, strain 3095
[12] = X. maltophila isolate 40, strain R1302-1
[13] = X. maltophila isolate 41, strain R4230
[14] = X. maltophila isolate 42, strain TF29-1
[15] = X. maltophila isolate 43, strain TF29-2
[16] = X. maltophila isolate 44, strain W6896-2
[17] = E. cloacae isolate 12, strain ATCC 13047
[18] = E. cloacae isolate 13, strain 37-1
[19] = E. cloacae isolate 14, strain 938-2
[20] = E. cloacae isolate 15, strain B5546
[21] = E. cloacae isolate 16, strain R4148
[22] = E. cloacae isolate 17, strain R4148-2
[23] = E. cloacae isolate 18, strain 3077
[24] = E. cloacae isolate 19, strain 3356
[25] = E. cloacae isolate 20, strain 14269
[26] = E. cloacae isolate 21, strain 14661
[27] = E. cloacae isolate 22, strain 18801
[28] = P. aeruginosa isolate 23, strain ATCC 27853
[29] = P. aeruginosa isolate 24, strain 34
[30] = P. aeruginosa isolate 25, strain 923-1
[31] = P. aeruginosa isolate 26, strain 3101
[32] = P. aeruginosa isolate 27, strain 14644
[33] = P. aeruginosa isolate 28, strain 15036
[34] = P. aeruginosa isolate 29, strain 15545
[35] = P. aeruginosa isolate 30, strain B3999-1

SMILES | MIC (A. calcoaceticus; [1]) | MIC (A. calcoaceticus; [2]) | MIC (A. calcoaceticus; [3]) | MIC (A. calcoaceticus; [4]) | MIC (A. calcoaceticus; [5]) | MIC (A. calcoaceticus; [6]) | MIC (A. calcoaceticus; [7]) | MIC (A. calcoaceticus; [8]) | MIC (X. maltophila; [9]) | MIC (X. maltophila; [10]) | MIC (X. maltophila; [11]) | MIC (X. maltophila; [12]) | MIC (X. maltophila; [13]) | MIC (X. maltophila; [14]) | MIC (X. maltophila; [15]) | MIC (X. maltophila; [16]) | MIC (E. cloacae; [17]) | MIC (E. cloacae; [18]) | MIC (P. aeruginosa; [32]) | MIC (P. aeruginosa; [33]) | other results
CC(C)(O/N=C(\C(=O)N[C@@H]1C(=O)N2C(C(=O)[O-])=C(C[n+]3ccccc3)CS[C@H]12)c1csc(N)n1)C(=O)O [Ceftazidime] | 2 µg/mL | 16 µg/mL | 16 µg/mL | 8 µg/mL | 16 µg/mL | 16 µg/mL | 64 µg/mL | 128 µg/mL | 64 µg/mL | 32 µg/mL | 512 µg/mL | 16 µg/mL | 4 µg/mL | 4 µg/mL | 4 µg/mL | 64 µg/mL | 4 µg/mL | 2 µg/mL | 128 µg/mL | 2 µg/mL | MIC (X. maltophila; X. maltophila isolate 34, strain ATCC 13637): 64 µg/mL; MIC (X. maltophila; X. maltophila isolate 39, strain B3110.1): 64 µg/mL; MIC (E. cloacae; [19]): 2 µg/mL; MIC (E. cloacae; [20]): 2 µg/mL; MIC (E. cloacae; [21]): 512 µg/mL; MIC (E. cloacae; [22]): 512 µg/mL; MIC (E. cloacae; [23]): 2 µg/mL; MIC (E. cloacae; [24]): 128 µg/mL; MIC (E. cloacae; [25]): 512 µg/mL; MIC (E. cloacae; [26]): 512 µg/mL; MIC (E. cloacae; [27]): 2 µg/mL; MIC (P. aeruginosa; [28]): 32 µg/mL; MIC (P. aeruginosa; [29]): 32 µg/mL; MIC (P. aeruginosa; [30]): 4 µg/mL; MIC (P. aeruginosa; [31]): 8 µg/mL; MIC (P. aeruginosa; [34]): 8 µg/mL; MIC (P. aeruginosa; [35]): 16 µg/mL; MIC (P. aeruginosa; P. aeruginosa isolate 33, strain W5483-2): 8 µg/mL
O=C(O)c1cn(C2CC2)c2cc(N3CCNCC3)c(F)cc2c1=O [Ciprofloxacin] | – | 8 µg/mL | – | – | – | – | – | – | 4 µg/mL | 8 µg/mL | 16 µg/mL | 4 µg/mL | 4 µg/mL | 8 µg/mL | 8 µg/mL | 4 µg/mL | – | – | 32 µg/mL | 16 µg/mL | MIC (A. calcoaceticus; A. calcoaceticus isolate 3, strain 27): 8 µg/mL; MIC (X. maltophila; X. maltophila isolate 38, strain 7901): 32 µg/mL; MIC (X. maltophila; X. maltophila isolate 45, strain W11291): 4 µg/mL
C[C@@H](O)[C@H]1C(=O)N2C(C(=O)O)=C(SCCN=CN)C[C@H]12 [Imipenem] | 2 µg/mL | 16 µg/mL | 2 µg/mL | 1 µg/mL | 4 µg/mL | 2 µg/mL | 2 µg/mL | 512 µg/mL | – | – | – | – | – | – | – | – | 1 µg/mL | 2 µg/mL | 16 µg/mL | 16 µg/mL | MIC (A. calcoaceticus; A. calcoaceticus isolate 10, strain 8225): 2 µg/mL; MIC (A. calcoaceticus; A. calcoaceticus isolate 11, strain 8226): 4 µg/mL; MIC (E. cloacae; [19]): 4 µg/mL; MIC (E. cloacae; [20]): 2 µg/mL; MIC (E. cloacae; [21]): 4 µg/mL; MIC (E. cloacae; [22]): 2 µg/mL; MIC (E. cloacae; [23]): 4 µg/mL; MIC (E. cloacae; [24]): 4 µg/mL; MIC (E. cloacae; [25]): 4 µg/mL; MIC (E. cloacae; [26]): 2 µg/mL; MIC (E. cloacae; [27]): 2 µg/mL; MIC (P. aeruginosa; [28]): 8 µg/mL; MIC (P. aeruginosa; [29]): 512 µg/mL; MIC (P. aeruginosa; [30]): 4 µg/mL; MIC (P. aeruginosa; [31]): 8 µg/mL; MIC (P. aeruginosa; [34]): 256 µg/mL; MIC (P. aeruginosa; [35]): 256 µg/mL
